{"source": "patent US11510865B2", "about": "“Magnolia bark extract as a hydrophobic ligand for preferential removal of gram negative bacteria from the oral cavity” (WM. WRIGLEY JR. COMPANY, priority 2015, dated 2022)", "origin": "cited, not measured here", "tested_on": "S. mutans (ATCC 10449)", "settings": "increased from 0.01; Jongsma et al. 2015"}
{"smiles": "Oc1cc(Cl)ccc1Oc1ccc(Cl)cc1Cl", "note": "[triclosan]", "values": [{"measurement": "removal rate", "value": 0.05}]}
